The results in this text go back to PubChem BioAssay (NCI).

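Test compounds were applied to cells in 96-well plates for 48 hours at 5 doses. GI50 = concentration required for 50% inhibition of growth. Definition used: TGI = concentration required for complete inhibition of growth.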

Among the test systems are DMS 114 small cell lung; DMS 273 small cell lung; HOP-18 NSCLC; KM20L2 colon; MDA-N; P388 leukemia; P388/ADR leukemia; SN12K1 renal; SNB-78 CNS; XF 498 CNS; RXF-631 renal; LXFL 529 NSCLC.
Common to all, as to test: NCI tumour cell line growth inhibition, 48 h

`c1cc2n(n1)CCN2`: the TGI was above 8170 µM in the experiment with DMS 114 small cell lung; 2440 µM in the experiment on DMS 273 small cell lung; above 10000 µM with HOP-18 NSCLC; above 10000 µM in the experiment with KM20L2 colon; above 10000 µM with MDA-N; 2770 µM with P388 leukemia. For the same compound, the TGI in the experiment with P388/ADR leukemia is 4830 µM; in the experiment with SN12K1 renal it was 5980 µM; with SNB-78 CNS it was above 8740 µM; in the experiment on XF 498 CNS, 6960 µM.
Turning to `COc1c(O)cc2oc(-c3ccc(O)cc3)cc(=O)c2c1O`, the TGI in the experiment with MDA-N was above 100 µM.
With `Cc1cc(NCCCCCCNc2cc(C)nc3cc(N(C)C)ccc23)c2ccc(N(C)C)cc2n1`, the TGI in the experiment on DMS 273 small cell lung is 29.5 µM; with RXF-631 renal it was above 100 µM; in the experiment on XF 498 CNS, 59 µM.
As to `C1COCCN1.C1COCCN1.NC1CCCCC1N.[Cl-].[Pt+2]` (centres undefined), the GI50 in the experiment with HOP-18 NSCLC, with KM20L2 colon, in the experiment with LXFL 529 NSCLC and with SNB-78 CNS was above 100 µM throughout. Besides, the TGI with HOP-18 NSCLC, with KM20L2 colon, with LXFL 529 NSCLC and with SNB-78 CNS was above 100 µM in each case.
Turning to `CCOC1=C2C(=O)OC(=O)C2C2CCCCC2=C1` (centres undefined), the TGI in the experiment with DMS 114 small cell lung, in the experiment on DMS 273 small cell lung, with LXFL 529 NSCLC, with SNB-78 CNS and in the experiment with XF 498 CNS was above 100 µM throughout.
Take `COc1cc2ccccc2oc1=O`: in the experiment on MDA-N, the TGI is above 100 µM.
As to `O=c1c2ccccc2c(=O)n2n1CC=CC2`, the TGI with DMS 114 small cell lung, in the experiment on DMS 273 small cell lung, in the experiment on HOP-18 NSCLC, in the experiment with KM20L2 colon, in the experiment on LXFL 529 NSCLC and with SNB-78 CNS was above 100 µM in each case.
With `N#CCCN(CCCN(CCCN(C(=O)Nc1ccccc1)c1ccccc1)C(=O)Nc1ccccc1)C(=O)Nc1ccccc1`, in the experiment on MDA-N, the GI50 is above 100 µM and the TGI is above 100 µM.
As to `O=CN/C=C/c1cccc(O)c1`, the TGI in the experiment on DMS 114 small cell lung is above 100 µM; with DMS 273 small cell lung, above 100 µM; in the experiment with HOP-18 NSCLC it was above 100 µM; in the experiment with KM20L2 colon it was above 100 µM; in the experiment with LXFL 529 NSCLC it was above 100 µM; in the experiment with MDA-N, above 85 µM. Also, the TGI with SNB-78 CNS and in the experiment with XF 498 CNS was above 100 µM each time.
As to `CC(C)CCCC(C)[C@H]1CCC2[C@@H]3CCC4Nc5nocc5C[C@]4(C)C3CC[C@@]21C` (some centres undefined), the TGI with DMS 273 small cell lung was found to be 37.3 µM; with HOP-18 NSCLC, 34.7 µM; in the experiment with KM20L2 colon, 41.7 µM; in the experiment with LXFL 529 NSCLC it was 27.3 µM; in the experiment with SNB-78 CNS it was 42.1 µM.
As to `N.N.N.N.N.[Cl-].[Co+3].c1ccc(-c2nn[n-]n2)cc1`, the GI50 in the experiment with DMS 273 small cell lung is above 100 µM; with HOP-18 NSCLC it was 93.1 µM; in the experiment on KM20L2 colon it was above 100 µM; in the experiment on LXFL 529 NSCLC, above 100 µM; with SNB-78 CNS, above 100 µM. The TGI with DMS 273 small cell lung, in the experiment with HOP-18 NSCLC, with KM20L2 colon, in the experiment on LXFL 529 NSCLC and in the experiment with SNB-78 CNS was above 100 µM in each case.
Turning to `COc1cc(NC(C)CCCN)c2ncccc2c1` (centres undefined), the TGI with DMS 114 small cell lung is above 89 µM; with DMS 273 small cell lung, above 100 µM; in the experiment with HOP-18 NSCLC, above 100 µM; with KM20L2 colon, above 100 µM; with LXFL 529 NSCLC it was above 100 µM; with MDA-N, above 82.1 µM. Also, the TGI with RXF-631 renal is above 100 µM; with SNB-78 CNS, above 100 µM; in the experiment on XF 498 CNS, 73.2 µM.
Regarding `COCC(O)Cn1ccnc1[N+](=O)[O-]` (centres undefined), the TGI with DMS 114 small cell lung, with DMS 273 small cell lung, in the experiment on KM20L2 colon, in the experiment with SNB-78 CNS and in the experiment on XF 498 CNS was above 100 µM throughout.
In the experiment on MDA-N, `O=C(O)C1OC1(c1cccc(Cl)c1)c1ccccc1Cl` (centres undefined) returned a TGI of 65.6 µM.
For the compound `O=C1Nc2nc3ccccc3n2N=C2CCCC12` (centres undefined), the TGI in the experiment with DMS 114 small cell lung, with DMS 273 small cell lung, with KM20L2 colon, in the experiment on LXFL 529 NSCLC, with RXF-631 renal and with SNB-78 CNS was above 100 µM in each case. In addition, in the experiment on XF 498 CNS, the TGI was above 100 µM.
Turning to `O=C1C2C3C=C4c5ccccc5N(c5ccccc5)C4(C2C(=O)N1c1ccc(Cl)cc1)[C@H]1C(=O)N(c2ccc(Cl)cc2)C(=O)[C@@H]31` (some centres undefined), the TGI with DMS 114 small cell lung, in the experiment with DMS 273 small cell lung, with HOP-18 NSCLC, with KM20L2 colon, with LXFL 529 NSCLC and in the experiment with RXF-631 renal was above 100 µM in each case. Also, the TGI in the experiment on SNB-78 CNS and in the experiment with XF 498 CNS was above 100 µM throughout.
On to `O=C(O/C(=C(/N=Nc1ccccc1)c1ccccc1)c1ccccc1)c1ccccc1`, for which the TGI in the experiment on DMS 114 small cell lung, in the experiment with HOP-18 NSCLC, with KM20L2 colon, with LXFL 529 NSCLC, in the experiment on RXF-631 renal and in the experiment with SNB-78 CNS was above 100 µM throughout. In addition, the TGI with XF 498 CNS is above 100 µM.
On to `COc1cc([C@@H]2c3cc4c(cc3[C@@H](OC(=O)c3ccc(N)cc3)C3COC(=O)[C@@H]32)OCO4)cc(OC)c1O` (some centres undefined), for which the TGI is 61.9 µM in the experiment with DMS 273 small cell lung; above 95 µM in the experiment on HOP-18 NSCLC; 3.57 µM with KM20L2 colon; above 95 µM in the experiment with LXFL 529 NSCLC; 42 µM in the experiment with RXF-631 renal; above 95 µM with SNB-78 CNS.
Regarding `COC(=O)c1ccccc1OCc1cc(=O)oc2ccc(C)cc12`, the TGI with DMS 114 small cell lung, with DMS 273 small cell lung, in the experiment with KM20L2 colon, with LXFL 529 NSCLC, with MDA-N and in the experiment on RXF-631 renal was above 100 µM throughout. Moreover, the TGI in the experiment on XF 498 CNS amounted to 90.4 µM.
